Counter-ions that a name gives are not always drawn.
How the values were obtained:
[1] = test system: human induced hepatic stem cells NGC1-1; test: Quantitative RT-PCR, differentiation with TGF-β signaling inhibitors (Example 11); format: cell-based; details: cell samples Nos. 1141-1145: 0.5 μM inhibitor in ReproStem + 10 ng/mL aFGF, no feeder cells, Matrigel, 7 days after seeding; No. 1133 taken as 1
Description: The resultant cell samples are respectively referred to as “Nos. 1141-1145”. No. 1140 was cultured in the absence of any inhibitor. Nos. 1141-1145 were cultured in the presence of the following inhibitors, respectively. No. 1141: […] Cat. No. 2939) No. 1142: […] MERCK Calbiochem; Cat. […] MERCK Calbiochem; Cat. […] Cayman; Cat. No. 13031) No. 1145: […] Cayman; Cat. No. 13341). […] Seven days after the seeding, the cells were lysed in 1 mL/well of a QIAzol reagent to prepare the total RNA from the cell lysate using the miRNeasy Mini Kit (Qiagen). The total RNA was subjected to quantitative RT-PCR using the iScript Advanced cDNA synthesis kit, the SsoAdvanced SYBR Green Supremix ([…]), and the CFX96 Real-Time System C1000 Thermal Cycler, all manufactured by Bio-Rad.

[2] = test system: human induced hepatic stem cells AFB1-1; test: Quantitative RT-PCR, differentiation with TGF-β signaling inhibitors (Example 12); format: cell-based; details: cell samples Nos. 1545-1549: 0.5 μM inhibitor in ReproStem (bFGF-free), no feeder cells, Matrigel, 13 days after seeding; for KRT7 expression ratio: No. 1543 taken as 1; for GAPDH expression Ct value: housekeeping gene
Description: The resultant cell samples are respectively referred to as “Nos. 1545-1549”. No. 1544 was cultured in the absence of any inhibitor. Nos. 1545-1549 were cultured in the presence of the following inhibitors, respectively.
Thirteen days after the seeding, the cells were lysed in 1 mL/well of a QIAzol reagent to prepare the total RNA from the cell lysate using the miRNeasy Mini Kit (Qiagen). The total RNA was subjected to quantitative RT-PCR using the iScript Advanced cDNA synthesis kit, the SsoAdvanced SYBR Green Supremix ([…]), and the CFX96 Real-Time System C1000 Thermal Cycler, all manufactured by Bio-Rad. The quantified genes were ALB, AAT, TTR, AFP, cytokeratin 7 (KRT7), cytokeratin 19 (KRT19), and DLK1 (Delta-like 1 homolog).

[3] = test system: human induced hepatic stem cells AFB1-1; test: Quantitative RT-PCR of marker genes, hepatic differentiation on Matrigel (Examples 2-4); format: cell-based; details: cell sample No. 391: aFGF 10 ng/mL/ReproStem (bFGF-free), no feeder cells, 13 days, No. 377 taken as 1
[4] = test system: human induced hepatic stem cells AFB1-1; test: AFP in culture supernatant, hepatic differentiation on Matrigel (Examples 2-4); details: cell sample No. 391: aFGF 10 ng/mL/ReproStem (bFGF-free), no feeder cells, 13 days after seeding

Molecule	AAT expression ratio [1]	AFP expression ratio [1]	ALB expression ratio [1]	TTR expression ratio [1]	AAT expression Ct value [2]	AFP expression Ct value [2]	ALB expression Ct value [2]	DLK1 expression Ct value [2]	KRT7 expression Ct value [2]	KRT19 expression Ct value [2]	TTR expression Ct value [2]	KRT7 expression ratio [2]	GAPDH expression Ct value [2]	also measured
c1ccc(-c2n[nH]cc2-c2ccnc3ccccc23)nc1 [LY-364947, 4-[3-(2-pyridinyl)-1H-pyrazol-4-yl]-quinoline]	14.36	369.23	114.78	482.45										
NC(=O)c1ccc(-c2nc(-c3ccc4c(c3)OCO4)c(-c3ccccn3)[nH]2)cc1 [SB431542, 4-[4-(1,3-benzodioxol-5-yl)-5-pyridin-2-yl-1H-imidazol-2-yl]benzamide]	12.15	394.40	94.46	614.17										
Cc1cccc(-c2[nH]c(C(C)(C)C)nc2-c2ccc3c(c2)OCO3)n1.Cl [SB-505124, 2-(5-benzo[1,3]dioxol-5-yl-2-tert-butyl-3H-imidazol-4-yl)-6-methylpyridine hydrochloride hydrate]					23.56	18.61	23.2	18.77	19.8	20.33	17.24	2768	13.25	
Cc1cccc(-c2n[nH]cc2-c2ccc3ncccc3n2)n1 [compound 616451, 3-(pyridin-2-yl)-4-(4-quinonyl)-1H-pyrazole]	13.45	747.65	163.71	966.14										
Cc1cccc(-c2n[nH]cc2-c2ccc3ncccc3n2)n1 [compound 616452, 2-(3-(6-methylpyridin-2-yl)-1H-pyrazol-4-yl)-1,5-naphthyridine]	22.18	720.03	296.67	1,262.14										
Cc1cccc(-c2nc(C(C)(C)C)[nH]c2-c2ccc3c(c2)OCO3)n1 [compound 616453, HCl]					24.09	20.24	25.55	18.74	19.45	20.29	18.13	4761	13.76	
Fc1ccc(Cl)cc1-c1nc(Nc2ccncc2)c2nccnc2n1 [compound 616456]					23.54	17.48	21.35	19.1	20.05	20.45	17.4	3186	13.72	
Cc1cccc(-c2[nH]c(C(C)(C)C)nc2-c2ccc3nccnc3c2)n1 [compound 616459, 6-(2-tert-butyl-5-(6-methyl-pyridin-2-yl)-1H-imidazol-4-yl)-quinoxaline]					23.54	19.25	24.67	18.66	19.89	20.36	17.24	4905	14.24	
aFGF: aFGF, 10 ng/mL supplement of bFGF-free ReproStem medium (cell sample No. 391)														AAT expression level [3]: 220; AFP expression level [3]: 3,420; ALB expression level [3]: 3,172; DLK1 expression level [3]: 786; TTR expression level [3]: 3,910; α-fetoprotein (AFP) in culture supernatant [4]: 3,300 ng/mL
